Measured values published in US12479845B2, “Imidazopyridine derivative compounds and use of same” (HANMI PHARM. CO., LTD., priority 2019, dated 2025).

Tests used:
LSD1 = LSD1 (Homo sapiens (Human), UniProt O60341); experiment: Biochemical analysis of LSD1 histone demethylase inhibition (BPS Bioscience LSD1 fluorescence analysis kit, HRP/Amplex Red); conditions: demethylation of Lys4 of histone H3
Procedure: The biochemical inhibition activity of the synthesized compounds on LSD1 was measured. The activity measurement was performed using LSD1 fluorescence analysis kit (available from BPS Bioscience Co., Ltd., Catalog No: 50106). This analysis kit is designed to measure activity of LSD1 enzyme. H2O2 generated upon demethylation of Lys4 moiety of histone H3 by LSD1 is reacted with HRP/Amplex Red reagent to form fluorescent Resorufin, which is measured by this kit, thereby confirming demethylation.
The results are expressed as an IC50 value. As for a control, GSK2879552 (available from GlaxoSmithKline USA) was used.

NCI-H1417 cells = experiment: Cell growth suppression test (CellTiter-Glo Luminescent Cell Viability Assay, 10 days treatment); format: cell-based; conditions: treated for 10 days
Procedure: Cell growth suppression effects of the synthesized compounds on NCI-H1417 cells were identified. The cells were treated with the synthesized compounds for 10 days. Then, in order to test the cell growth suppression, CellTiter-Glo Luminescent Cell Viability Assay (available from Promega, USA) was used. This test is to measure emission signals proportional to the number of ATPs based on a fixed amount of ATPs, which represents the presence of metabolically active cells, thereby determining the number of viable cells. The results are expressed as a Gl50 value. As for a control, GSK2879552 (available from GlaxoSmithKline USA) was used.

Molecule | IC50 (LSD1) | GI50 (NCI-H1417 cells) | GI50 (NCI-H1417 cells; Homo sapiens, 240 h)
4-(7-((R)-3-aminopiperidine-1-yl)-3-(2-fluoro-4-((S)-3-hydroxypyrrolidine-1-yl)phenyl)-3H-imidazo[4,5-b]pyridine-2-yl)-2-fluorobenzonitrile [Example 35] | 45 nM | 17 nM | 
Cc1ccc(-n2c(-c3ccc(C#N)cc3)nc3c(N4CCC[C@@H](N)C4)ccnc32)cc1 [Example 1, (R)-4-(7-(3-aminopiperidine-1-yl)-3-(p-tolyl)-3H-imidazo[4,5-b]pyridine-2-yl)benzonitrile] | 56 nM |  | 90 nM
N#Cc1ccc(-c2nc3c(N4CC[C@@H](N)C4)ccnc3n2-c2ccc(C3CC3)cc2)cc1 [Example 2, (R)-4-(7-(3-aminopyrrolidine-1-yl)-3-(4-cyclopropylphenyl)-3H-imidazo[4,5-b]pyridine-2-yl)benzonitrile] | 162 nM |  | 40 nM
N#Cc1ccc(-c2nc3c(N4CCC(N)CC4)ccnc3n2-c2ccc(C3CC3)cc2)cc1 [Example 3, 4-(7-(4-aminopiperidine-1-yl)-3-(4-cyclopropylphenyl)-3H-imidazo[4,5-b]pyridine-2-yl)benzonitrile] | 53 nM |  | 230 nM
CN[C@@H]1CCCN(c2ccnc3c2nc(-c2ccc(C#N)cc2)n3-c2ccc(C3CC3)cc2)C1 [Example 4, (R)-4-(3-(4-cyclopropylphenyl)-7-(3-(methylamino)piperidine-1-yl)-3H-imidazo[4,5-b]pyridine-2-yl)benzonitrile] | 44 nM |  | 103 nM
N#Cc1ccc(-c2nc3c(N4CCC[C@@H](N)C4)ccnc3n2-c2ccc(C3CC3)cc2)cc1 [Example 5, (R)-4-(7-(3-aminopiperidine-1-yl)-3-(4-cyclopropylphenyl)-3H-imidazo[4,5-b]pyridine-2-yl)benzonitrile] | 101 nM |  | 159 nM
Cc1ccc(-n2c(-c3ccc(C#N)c(F)c3)nc3c(N4CCC[C@@H](N)C4)ccnc32)c(F)c1 [Example 7, (R)-4-(7-(3-aminopiperidine-1-yl)-3-(2-fluoro-4-methylphenyl)-3H-imidazo[4,5-b]pyridine-2-yl)-2-fluorobenzonitrile] | 26 nM |  | 99 nM
N#Cc1ccc(-c2nc3c(N4CCCC[C@@H](N)C4)ccnc3n2-c2ccc(C3CC3)cc2)cc1F [Example 8, (R)-4-(7-(3-aminoazepane-1-yl)-3-(4-cyclopropylphenyl)-3H-imidazo[4,5-b]pyridine-2-yl)-2-fluorobenzonitrile] | 23 nM |  | 56 nM
N#Cc1ccc(-c2nc3c(N4CCC[C@@H](N)C4)ccnc3n2-c2ccc(N3CCCCC3)cc2)cc1F [Example 9, (R)-4-(7-(3-aminopiperidine-1-yl)-3-(4-(piperidine-1-yl)phenyl)-3H-imidazo[4,5-b]pyridine-2-yl)-2-fluorobenzonitrile] | 38 nM |  | 100 nM
N#Cc1ccc(-c2nc3c(N4CCC[C@@H](N)C4)ccnc3n2-c2ccc(N3CCCCC3)cc2F)cc1F [Example 10, (R)-4-(7-(3-aminopiperidine-1-yl)-3-(2-fluoro-4-(piperidine-1-yl)phenyl)-3H-imidazo[4,5-b]pyridine-2-yl)-2-fluorobenzonitrile] | 40 nM |  | 30 nM
N#Cc1ccc(-c2nc3c(N4CCC[C@@H](N)C4)ccnc3n2-c2ccc(C3CC3)cc2F)cc1F [Example 11, (R)-4-(7-(3-aminopiperidine-1-yl)-3-(4-cyclopropyl-2-fluorophenyl)-3H-imidazo[4,5-b]pyridine-2-yl)-2-fluorobenzonitrile] | 21 nM |  | 24 nM
CN[C@@H]1CCCN(c2ccnc3c2nc(-c2ccc(C#N)c(F)c2)n3-c2ccc(N3CCCC3)cc2)C1 [Example 12, (R)-2-fluoro-4-(7-(3-(methylamino)piperidine-1-yl)-3-(4-(pyrrolidine-1-yl)phenyl)-3H-imidazo[4,5-b]pyridine-2-yl)benzonitrile] | 24 nM |  | 
N#Cc1ccc(-c2nc3c(N4CCC[C@@H](N)C4)ccnc3n2-c2ccc(N3CCCC3)cc2)cc1F [Example 13, (R)-4-(7-(3-aminopiperidine-1-yl)-3-(4-(pyrrolidine-1-yl)phenyl)-3H-imidazo[4,5-b]pyridine-2-yl)-2-fluorobenzonitrile] | 23 nM |  | 62 nM
CN(C)c1ccc(-n2c(-c3ccc(C#N)c(F)c3)nc3c(N4CCC[C@@H](N)C4)ccnc32)cc1 [Example 14, (R)-4-(7-(3-aminopiperidine-1-yl)-3-(4-(dimethylamino)phenyl)-3H-imidazo[4,5-b]pyridine-2-yl)-2-fluorobenzonitrile] | 26 nM |  | 
N#Cc1ccc(-c2nc3c(N4CCC[C@@H](N)C4)ccnc3n2-c2c(F)cc(C3CC3)cc2F)cc1F [Example 18, (R)-4-(7-(3-aminopiperidine-1-yl)-3-(4-cyclopropyl-2,6-difluorophenyl)-3H-imidazo[4,5-b]pyridine-2-yl)-2-fluorobenzonitrile] | 38 nM |  | 46 nM
N#Cc1ccc(-c2nc3c(N4CCC[C@@H](N)C4)ccnc3n2-c2c(F)cc(N3CCCC3)cc2F)cc1F [Example 19, (R)-4-(7-(3-aminopiperidine-1-yl)-3-(2,6-difluoro-4-(pyrrolidine-1-yl)phenyl)-3H-imidazo[4,5-b]pyridine-2-yl)-2-fluorobenzonitrile] | 29 nM |  | 18 nM
COC1CCN(c2ccc(-n3c(-c4ccc(C#N)c(F)c4)nc4c(N5CCC[C@@H](N)C5)ccnc43)c(F)c2)C1 (stereo partly drawn) [Example 23, 4-(7-((R)-3-aminopiperidine-1-yl)-3-(2-fluoro-4-(3-methoxypyrrolidine-1-yl)phenyl)-3H-imidazo[4,5-b]pyridine-2-yl)-2-fluorobenzonitrile] | 17 nM |  | 4.8 nM
CO[C@@H]1CCN(c2ccc(-n3c(-c4ccc(C#N)c(F)c4)nc4c(N5CCC[C@@H](N)C5)ccnc43)c(F)c2)C1 [Example 24, 4-(7-((R)-3-aminopiperidine-1-yl)-3-(2-fluoro-4-((R)-3-methoxypyrrolidine-1-yl)phenyl)-3H-imidazo[4,5-b]pyridine-2-yl)-2-fluorobenzonitrile] | 19 nM |  | 7.6 nM
CO[C@H]1CCN(c2ccc(-n3c(-c4ccc(C#N)c(F)c4)nc4c(N5CCC[C@@H](N)C5)ccnc43)c(F)c2)C1 [Example 25, 4-(7-((R)-3-aminopiperidine-1-yl)-3-(2-fluoro-4-((S)-3-methoxypyrrolidine-1-yl)phenyl)-3H-imidazo[4,5-b]pyridine-2-yl)-2-fluorobenzonitrile] | 38 nM |  | 4.4 nM
N#Cc1ccc(-c2nc3c(N4CCC[C@@H](N)C4)ccnc3n2-c2ccc(N3CCC(F)(F)C3)cc2F)cc1F [Example 26, (R)-4-(7-(3-aminopiperidine-1-yl)-3-(4-(3,3-difluoropyrrolidine-1-yl)-2-fluorophenyl)-3H-imidazo[4,5-b]pyridine-2-yl)-2-fluorobenzonitrile] | 29 nM |  | 26 nM
N#Cc1ccc(-c2nc3c(N4CCC[C@@H](N)C4)ccnc3n2-c2ccc(N3CCCC3)cc2F)cc1F [Example 27, (R)-4-(7-(3-aminopiperidine-1-yl)-3-(2-fluoro-4-(pyrrolidine-1-yl)phenyl)-3H-imidazo[4,5-b]pyridine-2-yl)-2-fluorobenzonitrile] | 37 nM |  | 64 nM
Cc1ccc(-n2c(-c3ccc(C#N)c(F)c3)nc3c(N4CCC[C@@H](N)C4)ccnc32)cc1 [Example 28, (R)-4-(7-(3-aminopiperidine-1-yl)-3-(p-tolyl)-3H-imidazo[4,5-b]pyridine-2-yl)-2-fluorobenzonitrile] | 40 nM |  | 37 nM
COC1CN(c2ccc(-n3c(-c4ccc(C#N)c(F)c4)nc4c(N5CCC[C@@H](N)C5)ccnc43)c(F)c2)C1 [Example 31, (R)-4-(7-(3-aminopiperidine-1-yl)-3-(2-fluoro-4-(3-methoxyazetidine-1-yl)phenyl)-3H-imidazo[4,5-b]pyridine-2-yl)-2-fluorobenzonitrile] | 30 nM |  | 32 nM
CC(=O)O[C@H]1CCN(c2ccc(-n3c(-c4ccc(C#N)c(F)c4)nc4c(N5CCC[C@@H](N)C5)ccnc43)c(F)c2)C1 [Example 32, (S)-1-(4-(7-((R)-3-aminopiperidine-1-yl)-2-(4-cyano-3-fluorophenyl)-3H-imidazo[4,5-b]pyridine-3-yl)-3-fluorophenyl)pyrrolidine-3-yl acetate] | 38 nM |  | 46 nM
N#Cc1ccc(-c2nc3c(N4CCC[C@@H](N)C4)ccnc3n2-c2ccc(N3CC[C@H](Cl)C3)cc2F)cc1F [Example 36, 4-(7-((R)-3-aminopiperidine-1-yl)-3-(4-((S)-3-chloropyrrolidine-1-yl)-2-fluorophenyl)-3H-imidazo[4,5-b]pyridine-2-yl)-2-fluorobenzonitrile] | 26 nM |  | 26 nM
CCO[C@H]1CCN(c2ccc(-n3c(-c4ccc(C#N)c(F)c4)nc4c(N5CCC[C@@H](N)C5)ccnc43)c(F)c2)C1 [Example 39] | 25 nM |  | 3.6 nM
N#Cc1ccc(-c2nc3c(N4CCCC[C@@H](N)C4)ccnc3n2-c2ccc(N3CC4COCC4C3)cc2F)cc1F (stereo partly drawn) [Example 73, 4-(7-((R)-3-aminoazepane-1-yl)-3-(2-fluoro-4-(tetrahydro-1H-furo[3,4-c]pyrrole-5(3H)-yl)phenyl)-3H-imidazo[4,5-b]pyridine-2-yl)-2-fluorobenzonitrile] | 28 nM |  | 
